Values quoted from earlier work as cited in US4933274A, “Process for detecting genetic susceptibility to cancer” (United States of America Represented by the Secretary of …, priority 1988, dated 1990).

Key:
x-irradiated XP-A cells = conditions: ara-C added to x-irradiated XP-A (xeroderma pigmentosum group A) cells
normal cells = conditions: ara-C 50 μM added to normal cells following irradiation

In the case of Nc1ccn([C@@H]2O[C@H](CO)[C@@H](O)[C@@H]2O)c(=O)n1 [ara-C, β-cytosine arabinoside], the chromatid damage (x-irradiated XP-A cells) is listed as “no effect on chromatid damage” and the “frequency of chromatid damage” value (normal cells) is listed as “enhances the frequency of chromatid damage to the level observed in the irradiated cancer-prone cells”.
